The numbers were not newly measured in patent publication US20260007782A1, “PREPARATION METHOD FOR LIQUID COMPOSITION COMPRISING COMPOUND I AND USE IN MYOCARDIAL PERFUSION PET IMAGING” (SINOTAU PHARMACEUTICAL GROUP, priority 2022, published 2026), which cites them from elsewhere.

Structures are written as SMILES.

The conditions of the data set: animals.

Regarding `CC(C)(C)n1ncc(OCc2cccc(Cn3cc(COCCOCC[18F])nn3)c2)c(Cl)c1=O` [Compound I, 2-tert-butyl-4-chloro-5-((3-((4-((2-(2-fluoro[^18F]ethoxy)ethoxy)methyl)-1H-1,2,3-triazol-1-yl)methyl)benzyl)oxy)pyridazin-3(2H)-one], for the setting “15 minutes post-injection”, the cardiac uptake result is given as “high” and the liver uptake entry is given as “low”. The heart-to-liver ratio entry (maintained after 60 minutes) is reported as “favorable”.
